Experimental data: patent publication US11192882B2, “Crystal form of small molecule immune compound, preparation method thereof and pharmaceutical composition containing the same” (SHENZHEN NEPTUNUS PHARMACEUTICAL RESEARCH INSTITUTE CO., …, priority 2018, dated 2021)

Test: Stress testing (accelerated test for 10 days) of the solid: crystal form B and crude product
Assay type: physicochemical
Conditions: for Purity compared with day 0 (in words): accelerated test for 10 days
Description: Detection instrument: Agilent 1260 series (U.S.)
Chromatographic column: Waters Sunfire C18;
Mobile phase A: water-mobile phase acetonitrile B (80:20);
Column temperature: 40° C.; Detection wavelength: 390 nm.
Detection basis: High performance liquid chromatography method, Pharmacopoeia of the People's Republic of China, Part II Appendix VD
The obtained crystal form B was subjected to stability studies (accelerated test for 10 days), to compare the data of purity, maximum single impurity and total impurities of the new crystal form under the conditions of 60° C., humidity 92.5%, and light irradiation with the data on day 0.
The crude product of (3Z,6Z)-3-[((E)-3-(5-tert-butyl)-1H-imidazolyl-4-yl)meth ylene]-6-((E)-3-(3-fluorophenyl)-2-propenylene)piperazine-2,5-dione was subjected to stability studies (accelerated test for 10 days), to compare the data of purity, maximum single impurity of the crude product stored at 40° C., 60° C. to the data on day 0.

[1] = Day 10, sample 1, no stress condition given

CC(C)(C)c1nc[nH]c1/C=c1\[nH]c(=O)/c(=C/C=C/c2cccc(F)c2)[nH]c1=O [Crude product, (3Z,6Z)-3-[((E)-3-(5-tert-butyl)-1H-imidazolyl-4-yl)methylene]-6-((E)-3-(3-fluorophenyl)-2-propenylene)piperazine-2,5-dione]
Purity compared with crystal form B under the same conditions (in words) (60° C., day 5 and day 10): lower than that of the crystal form B
Content (%) (crude product, 40° C. Day 5): 99.08%
Maximum single impurity (%) (crude product, 40° C. Day 5): 0.25(RRT: 0.95) %
Content (%) (crude product, 40° C. Day 10): 98.68%
Maximum single impurity (%) (crude product, 40° C. Day 10): 0.50(RRT: 0.95) %
Content (%) (crude product, 60° C. Day 5): 96.89%
Maximum single impurity (%) (crude product, 60° C. Day 5): 1.14(RRT: 0.91) %
Content (%) (crude product, 60° C. Day 10): 95.27%
Maximum single impurity (%) (crude product, 60° C. Day 10): 1.88(RRT: 0.91) %
Content (%) (crude product, Day 0): 99.49%
Maximum single impurity (%) (crude product, Day 0): 0.24(RRT: 0.95) %

CC(C)(C)c1nc[nH]c1/C=c1\[nH]c(=O)/c(=C/C=C/c2cccc(F)c2)[nH]c1=O [crystal form B, (3Z,6Z)-3-[((E)-3-(5-tert-butyl)-1H-imidazolyl-4-yl)methylene]-6-((E)-3-(3-fluorophenyl)-2-propenylene)piperazine-2,5-dione]
Maximum single impurity (%) (Day 0): 0.24 (RRT: 0.95) %
Purity (%) (Day 0): 99.50%
Total impurities (%) (Day 0): 0.50%
Maximum single impurity (%) (Day 5, 60° C.): 0.24 (RRT: 0.95) %
Purity (%) (Day 5, 60° C.): 99.50%
Total impurities (%) (Day 5, 60° C.): 0.50%
Maximum single impurity (%) (Day 5, humidity 92.5%): 0.24 (RRT: 0.95) %
Purity (%) (Day 5, humidity 92.5%): 99.50%
Total impurities (%) (Day 5, humidity 92.5%): 0.50%
Maximum single impurity (%) (Day 5, light irradiation): 0.26 (RRT: 0.95) %
Purity (%) (Day 5, light irradiation): 99.40%
Total impurities (%) (Day 5, light irradiation): 0.60%
Maximum single impurity (%) (Day 10, 60° C.): 0.24 (RRT: 0.95) %
Purity (%) (Day 10, 60° C.): 99.50%
Total impurities (%) (Day 10, 60° C.): 0.50%
Maximum single impurity (%) (Day 10, humidity 92.5%): 0.24 (RRT: 0.95) %
Purity (%) (Day 10, humidity 92.5%): 99.50%
Total impurities (%) (Day 10, humidity 92.5%): 0.50%
Maximum single impurity (%) (Day 10, light irradiation): 0.26 (RRT: 0.95) %
Purity (%) (Day 10, light irradiation): 99.40%
Total impurities (%) (Day 10, light irradiation): 0.60%
Maximum single impurity (%) [1]: 0.24 (RRT: 0.95) %
Purity (%) [1]: 99.50%
Total impurities (%) [1]: 0.50%
Purity compared with day 0 (in words) (light irradiation): slightly reduced
Purity compared with day 0 (in words) (other conditions (60° C., humidity 92.5%)): stable
